A word on the EC50: it is the concentration that produces a half-maximal response.

The values that follow come from patent US12485123B2, “1H-pyrazolo[4,3-d]pyrimidine compounds as toll-like receptor 7 (TLR7) agonists” (BRISTOL-MYERS SQUIBB COMPANY, priority 2020, dated 2025).

One assay deals with CD69. Description: Induction of CD69 in human whole blood. Type of assay: cell-based. The conditions noted are these: 17 hrs incubation, CD69 surface staining, 100% set to 1 uM of resiquimod, average where assay repeated, read-out: hWB CD69 EC50. How it is done: Induction of Type I Interferon Genes (MX-1) and CD69 in Human Blood
The induction of Type I interferon (IFN) MX-1 genes and the B-cell activation marker CD69 are downstream events that occur upon activation of the TLR7 pathway. The following is a human whole blood assay that measures their induction in response to a TLR7 agonist.
Heparinized human whole blood was harvested from human subjects and treated with test TLR7 agonist compounds at 1 mM. The blood was diluted with RPMI 1640 media and Echo was used to predot 10 nL per well giving a final concentration of 1 uM (10 nL in 10 uL of blood). After mixing on a shaker for 30 sec, the plates were covered and placed in a 37° C. chamber for o/n=17 hrs. Fixing/lysis buffer was prepared (5×→1× in H2O, warm at 37° C.; Cat #BD 558049) and kept the perm buffer (on ice) for later use.
For surface markers staining (CD69): prepared surface Abs: 0.045 ul hCD14-FITC (ThermoFisher Cat #MHCD1401)+0.6 ul hCD19-ef450 (ThermoFisher Cat #48-0198-42)+1.5 ul hCD69-PE (cat #BD555531)+0.855 ul FACS buffer. Added 3 ul/well, spin 1000 rpm for 1 min and mixed on shaker for 30 sec, put on ice for 30 min. Stop stimulation after 30 minutes with 70 uL of prewarmed 1× fix/lysis buffer and use Feliex mate to resuspend (15 times, change tips for each plate) and incubate at 37 C for 10 minutes.
Centrifuge at 2000 rpm for 5 minutes aspirate with HCS plate washer, mix on shaker for 30 sec and then wash with 70 uL in dPBS and pelleted 2×s (2000 rpm for 5 min) and 50 ul wash in FACS buffer pelleted 1×s (2000 rpm for 5 min). Mix on shaker for 30 sec. For Intracellular markers staining (MX-1): Add 50 ul of BD Perm buffer III and mix on shaker for 30 sec. Incubate on ice for 30 minutes (in the dark). Wash with 50 uL of FACS buffer 2× (spin @2300 rpm×5 min after perm) followed by mixing on shaker for 30 sec. Resuspended in 20 ul of FACS buffer containing MX1 antibody ( )(4812)-Alexa 647: Novus Biologicals #NBP2-43704AF647) 20 ul FACS bf+0.8 ul hIgG+0.04 ul MX-1. Spin 1000 rpm for 1 min, mix on shaker for 30 se and the samples were incubated at RT in the dark for 45 minutes followed by washing 2×FACS buffer (spin @2300 rpm×5 min after perm). Resuspend 20 ul (35 uL total per well) of FACS buffer and cover with foil and place in 4° C. to read the following day. Plates were read on iQuePlus. The results were loaded into toolset and […] curves are generated in curve master. The y-axis 100% is set to 1 uM of resiquimod.

For another assay, the target named is T1, human TLR7 (Homo sapiens, UniProt Q9NYK1).
T1 construct: host or cells: HEK-Blue TLR7 cells (engineered human embryonic kidney cells)
T1 sequence (Q9NYK1 27-1049): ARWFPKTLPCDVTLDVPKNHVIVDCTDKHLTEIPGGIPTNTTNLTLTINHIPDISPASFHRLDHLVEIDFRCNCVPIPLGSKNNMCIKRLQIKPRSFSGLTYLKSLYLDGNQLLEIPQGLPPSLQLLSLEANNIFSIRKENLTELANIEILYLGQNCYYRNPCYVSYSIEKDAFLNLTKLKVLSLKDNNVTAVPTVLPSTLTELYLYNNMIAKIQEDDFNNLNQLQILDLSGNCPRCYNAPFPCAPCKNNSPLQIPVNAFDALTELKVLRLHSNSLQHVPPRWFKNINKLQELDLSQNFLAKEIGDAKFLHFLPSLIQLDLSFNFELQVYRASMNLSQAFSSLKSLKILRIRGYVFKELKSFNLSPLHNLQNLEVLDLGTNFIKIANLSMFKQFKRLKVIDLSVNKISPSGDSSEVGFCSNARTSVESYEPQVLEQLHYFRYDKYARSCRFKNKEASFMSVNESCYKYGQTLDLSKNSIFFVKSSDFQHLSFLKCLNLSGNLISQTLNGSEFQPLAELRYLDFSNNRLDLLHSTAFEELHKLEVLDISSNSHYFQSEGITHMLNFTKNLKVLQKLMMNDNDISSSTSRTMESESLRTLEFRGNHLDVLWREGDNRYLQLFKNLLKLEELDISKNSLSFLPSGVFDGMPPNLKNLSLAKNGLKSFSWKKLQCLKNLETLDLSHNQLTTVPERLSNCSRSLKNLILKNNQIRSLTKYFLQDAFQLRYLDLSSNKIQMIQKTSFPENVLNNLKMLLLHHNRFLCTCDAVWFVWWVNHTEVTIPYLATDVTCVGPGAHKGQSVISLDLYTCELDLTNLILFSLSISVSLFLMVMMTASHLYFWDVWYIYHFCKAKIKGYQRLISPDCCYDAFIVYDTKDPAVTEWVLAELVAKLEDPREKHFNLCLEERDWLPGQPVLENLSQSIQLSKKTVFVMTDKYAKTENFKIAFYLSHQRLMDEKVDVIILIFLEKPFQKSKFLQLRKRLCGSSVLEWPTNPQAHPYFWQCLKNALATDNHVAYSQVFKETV
Description: Human TLR7 agonist activity reporter assay (HEK-Blue TLR7 cells, SEAP reporter). Format: cell-based. To be noted: human TLR7 (hTLR7) reporter assay, SEAP readout after 18 h, average where assay repeated, read-out: TLR7 Agonism EC50. How it is done: Human TLR7 Agonist Activity Assay
This procedure describes a method for assaying human TLR7 (hTLR7) agonist activity of the compounds disclosed in this specification.
HEK-Blue™ TLR7 cells were added to each well of a 384-well tissue-culture plate (15,000 cells per well) and incubated 16-18 h at 37° C., 5% CO2. Compounds (100 nl) were dispensed into wells containing the HEK-Blue™ TLR cells and the treated cells were incubated at 37° C., 5% CO2. After 18 h treatment ten microliters of freshly-prepared Quanti-Blue™ reagent (Invivogen) was added to each well, incubated for 30 min (37° C., 5% CO2) and SEAP levels measured using an Envision plate reader (OD=620 nm).

`CCC[C@@H](CCO)Nc1nc(N)nc2cnn(Cc3ccc(C(=O)N4CCN(CCO)CC4)c4cccnc34)c12` [Compound 111, (3S)-3-{[5-amino-1-({5-[4-(2-hydroxyethyl)piperazine-1-carbonyl]quinolin-8-yl}methyl)-1H-pyrazolo[4,3-d]pyrimidin-7-yl]amino}hexan-1-ol]: the concentration for a half-maximal effect (EC50) in the assay on CD69 amounted to 57.7 nM; at human TLR7 it was 66 nM.
On the same counts, the results for `CCC[C@@H](CCO)Nc1nc(N)nc2cnn(Cc3ccc(CN4CC(O)C4)c4cccnc34)c12` [Compound 105, 1-({8-[(5-amino-7-{[(3S)-1-hydroxyhexan-3-yl]amino}-1H-pyrazolo[4,3-d]pyrimidin-1-yl)methyl]quinolin-5-yl}methyl)azetidin-3-ol] are 13.8 nM and 49.4 nM.
On the same counts, the results for `CCC[C@@H](CCO)Nc1nc(N)nc2cnn(Cc3cccc4cccnc34)c12` [Compound 110, (3S)-3-({5-amino-1-[(quinolin-8-yl)methyl]-1H-pyrazolo[4,3-d]pyrimidin-7-yl}amino)hexan-1-ol] are 729 nM and 287 nM.
With `CCC[C@@H](CCO)Nc1nc(N)nc2cnn(Cc3ccc(C(=O)NCCCCO)c4cccnc34)c12` [Compound 136, 8-[(5-amino-7-{[(3S)-1-hydroxyhexan-3-yl]amino}-1H-pyrazolo[4,3-d]pyrimidin-1-yl)methyl]-N-(4-hydroxybutyl)quinoline-5-carboxamide], the EC50 in the assay on CD69 is 418 nM; on human TLR7, 231 nM.
On the same counts, the results for `CCC[C@@H](CCO)Nc1nc(N)nc2cnn(Cc3ccc(C(=O)N4CC(OC)C4)c4cccnc34)c12` [Compound 108, (3S)-3-[(5-amino-1-{[5-(3-methoxyazetidine-1-carbonyl)quinolin-8-yl]methyl}-1H-pyrazolo[4,3-d]pyrimidin-7-yl)amino]hexan-1-ol] are 110 nM and 67.6 nM.
On the same counts, the results for `CCC[C@@H](CCO)Nc1nc(N)nc2cnn(Cc3ccc(C4CCNCC4)c4cccnc34)c12` [Compound 141, (3S)-3-[(5-amino-1-{[5-(piperidin-4-yl)quinolin-8-yl]methyl}-1H-pyrazolo[4,3-d]pyrimidin-7-yl)amino]hexan-1-ol] are 0.3 nM and 21.7 nM.
For `CCC[C@@H](CCO)Nc1nc(N)nc2cnn(Cc3ccc(CN4CC(OC)C4)c4cccnc34)c12` [Compound 102, (3S)-3-{[5-amino-1-({5-[(3-methoxyazetidin-1-yl)methyl]quinolin-8-yl}methyl)-1H-pyrazolo[4,3-d]pyrimidin-7-yl]amino}hexan-1-ol], the EC50 was determined as 12.2 nM in the assay on CD69 and 30.8 nM at human TLR7.
Take `CCC[C@@H](CCO)Nc1nc(N)nc2cnn(Cc3ccc(C(=O)NCCN)c4cccnc34)c12` [Compound 133, 8-[(5-amino-7-{[(3S)-1-hydroxyhexan-3-yl]amino}-1H-pyrazolo[4,3-d]pyrimidin-1-yl)methyl]-N-(2-aminoethyl)quinoline-5-carboxamide]: the results for the EC50 in the assay with CD69 and at human TLR7 were 593 nM and 409 nM, respectively.
Regarding `CCC[C@@H](CCO)Nc1nc(N)nc2cnn(Cc3ccc(CN4C[C@H]5CN(C)C[C@H]5C4)c4cccnc34)c12` [Compound 140, (3S)-3-({1-[(5-{[(3aR,6aS)-5-methyl-octahydropyrrolo[3,4-c]pyrrol-2-yl]methyl}quinolin-8-yl)methyl]-5-amino-1H-pyrazolo[4,3-d]pyrimidin-7-yl}amino)hexan-1-ol], the EC50 in the assay with CD69 was found to be 21.1 nM; on human TLR7, 8.3 nM.
On the same counts, the results for `Cc1cc(CNc2nc(N)nc3cnn(Cc4ccc(C(=O)NC5CCN(C)CC5)c5cccnc45)c23)no1` [Compound 122, 8-[(5-amino-7-{[(5-methyl-1,2-oxazol-3-yl)methyl]amino}-1H-pyrazolo[4,3-d]pyrimidin-1-yl)methyl]-N-(1-methylpiperidin-4-yl)quinoline-5-carboxamide] are 54 nM and 309 nM.
With `CCC[C@@H](CCO)Nc1nc(N)nc2cnn(Cc3ccc(C(=O)N4CCC(CCO)CC4)c4cccnc34)c12` [Compound 134, (3S)-3-{[5-amino-1-({5-[4-(2-hydroxyethyl)piperidine-1-carbonyl]quinolin-8-yl}methyl)-1H-pyrazolo[4,3-d]pyrimidin-7-yl]amino}hexan-1-ol], the figures for the EC50 with CD69 and on human TLR7 were 194 nM and 35.4 nM, respectively.
On to `CCC[C@@H](CCO)Nc1nc(N)nc2cnn(Cc3ccc(C(=O)N4CCNCC4)c4cccnc34)c12` [Compound 137, (3S)-3-[(5-amino-1-{[5-(piperazine-1-carbonyl)quinolin-8-yl]methyl}-1H-pyrazolo[4,3-d]pyrimidin-7-yl)amino]hexan-1-ol], for which the EC50 amounted to 20.4 nM in the assay on CD69 and 60.9 nM at human TLR7.
As for `CCC[C@@H](CCO)Nc1nc(N)nc2cnn(Cc3ccc(C(=O)N4C[C@H]5CN(C)C[C@H]5C4)c4cccnc34)c12` [Compound 125, (3S)-3-{[1-([5-[(3aR,6aS)-5-methyl-octahydropyrrolo[3,4-c]pyrrole-2-carbonyl]quinolin-8-yl}methyl)-5-amino-1H-pyrazolo[4,3-d]pyrimidin-7-yl]amino}hexan-1-ol], the EC50 with CD69 was determined as 83.3 nM; at human TLR7, 33.7 nM.
As for `CCC[C@@H](CCO)Nc1nc(N)nc2c(C)nn(Cc3ccc(C(=O)NC4CCOCC4)c4cccnc34)c12` [Compound 119, 8-[(5-amino-7-{[(3S)-1-hydroxyhexan-3-yl]amino}-3-methyl-1H-pyrazolo[4,3-d]pyrimidin-1-yl)methyl]-N-(oxan-4-yl)quinoline-5-carboxamide], the EC50 amounted to 1000 nM in the assay with CD69 and 606 nM on human TLR7.
On the same counts, the results for `CCC[C@@H](CCO)Nc1nc(N)nc2cnn(Cc3ccc(C(=O)N4CC(O)C4)c4cccnc34)c12` [Compound 135, 1-{8-[(5-amino-7-{[(3S)-1-hydroxyhexan-3-yl]amino}-1H-pyrazolo[4,3-d]pyrimidin-1-yl)methyl]quinoline-5-carbonyl}azetidin-3-ol] are 80.1 nM and 126 nM.
